Assay results published in US20180057507A1, “INHIBITORS OF DUAL LEUCINE ZIPPER (DLK) KINASE FOR THE TREATMENT OF DISEASE” (Board of Regents, The University of Texas System, priority 2016, published 2018).

How the values were obtained:
human DLK [1] = molecular target: T1, human DLK (Homo sapiens, UniProt Q12852); test: DLK Kd Determinations (KINOMEscan KdELECT, DiscoveRx); set-up: full length of human DLK (amino acids 1-859); host or cells: transiently transfected HEK293 cells; unpurified extract; settings: fusion protein of full length human DLK (amino acids 1-859) and NFkB DNA binding domain; qPCR readout; duplicate
T1 sequence (Q12852 1-859): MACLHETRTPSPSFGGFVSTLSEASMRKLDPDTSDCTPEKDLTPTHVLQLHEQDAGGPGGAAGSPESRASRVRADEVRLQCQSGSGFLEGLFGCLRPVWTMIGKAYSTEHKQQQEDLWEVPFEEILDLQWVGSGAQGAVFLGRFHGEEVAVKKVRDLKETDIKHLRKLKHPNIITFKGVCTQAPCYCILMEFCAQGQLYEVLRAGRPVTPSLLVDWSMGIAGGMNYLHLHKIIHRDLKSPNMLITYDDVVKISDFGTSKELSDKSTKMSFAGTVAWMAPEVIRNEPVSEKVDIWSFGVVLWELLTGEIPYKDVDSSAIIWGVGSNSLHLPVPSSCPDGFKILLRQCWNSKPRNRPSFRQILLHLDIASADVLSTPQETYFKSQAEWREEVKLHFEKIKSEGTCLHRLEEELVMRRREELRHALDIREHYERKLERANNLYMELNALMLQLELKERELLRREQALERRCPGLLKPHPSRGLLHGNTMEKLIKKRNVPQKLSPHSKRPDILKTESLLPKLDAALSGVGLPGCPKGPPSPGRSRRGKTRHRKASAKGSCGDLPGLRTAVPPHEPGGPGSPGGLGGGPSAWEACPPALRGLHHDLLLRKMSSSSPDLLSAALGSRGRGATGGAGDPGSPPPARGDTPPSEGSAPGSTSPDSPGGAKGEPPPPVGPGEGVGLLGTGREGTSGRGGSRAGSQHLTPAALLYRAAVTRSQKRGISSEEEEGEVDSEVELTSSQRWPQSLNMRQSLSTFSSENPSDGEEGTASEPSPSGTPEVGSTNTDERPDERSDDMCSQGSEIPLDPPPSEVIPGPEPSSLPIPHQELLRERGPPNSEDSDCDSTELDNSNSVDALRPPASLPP
In short: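 Competition binding of full-length human DLK (aa 1-859)-NFkB DBD fusion, DNA-tagged, from HEK293 extracts against an immobilized ligand; 1 h at room temperature, 0.9% DMSO. Bead-bound kinase was quantified by qPCR. Kd came from an 11-point 3-fold series (top 30,000 nM), in duplicate, with Hill slope fixed at −1.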

human DLK [2] = molecular target: T1, human DLK; test: Phospho-cJun Cellular Assay; assay type: cell-based; set-up: expressed in transfected cells; settings: HEK293 cells stably transfected with Dox-inducible human DLK; p-cJun (Ser63); 5 h compound incubation
In short: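 HEK293 cells with doxycycline-induced human DLK (induced 20 h; uninduced cells as negative control) treated with compound for 5 h at 37 °C. Phospho-cJun (Ser63) measured in lysates with detection-antibody kit; IC50 from variable-slope dose-response fit.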

Row | Structure (SMILES) | Kd (human DLK [1]) | IC50 (human DLK [2])
1 | CC(C)c1nc(-c2cnc(N)c(C(F)(F)F)c2)cn1[C@H]1[C@@H]2CC(N3CCN(CCF)CC3)C[C@@H]21 (single isomer, unassigned) [Example 155a, 5-(1-(3-(4-(2-fluoroethyl)piperazin-1-yl)bicyclo[3.1.0]hexan-6-yl)-2-isopropyl-1H-imidazol-4-yl)-3-(trifluoromethyl)pyridin-2-amine] | 23 nM | 1190 nM
2 | COCCN1C[C@@H]2[C@H](C1)[C@H]2n1cc(-c2cnc(N)c(OC(F)(F)F)c2)nc1C1CC1 [Example 68, 5-(2-cyclopropyl-1-((1R,5S,6s)-3-(2-methoxyethyl)-3-azabicyclo[3.1.0]hexan-6-yl)-1H-imidazol-4-yl)-3-(trifluoromethoxy)pyridin-2-amine] | 77 nM | 745 nM
3 | CCC(CC)c1nc(-c2cnc(N)c(C(F)(F)F)c2)cn1[C@H]1[C@@H]2CN(CCF)C[C@@H]21 [Example 125, 5-(1-((1R,5S,6s)-3-(2-fluoroethyl)-3-azabicyclo[3.1.0]hexan-6-yl)-2-(pentan-3-yl)-1H-imidazol-4-yl)-3-(trifluoromethyl)pyridin-2-amine] | 120 nM | 1290 nM
4 | Nc1ncc(-c2cn([C@H]3[C@@H]4CNC[C@@H]43)c(C3CC3)n2)cc1OC(F)(F)F [Example 53, 5-(1-((1R,5S,6s)-3-azabicyclo[3.1.0]hexan-6-yl)-2-cyclopropyl-1H-imidazol-4-yl)-3-(trifluoromethoxy)pyridin-2-amine] | 57 nM | 802 nM
5 | CC(C)c1nc(-c2cnc(N)c(OC(F)(F)F)c2)cn1[C@H]1[C@@H]2CC(N3CCOC[C@@H]3C)C[C@@H]21 (single isomer, unassigned) [Example 157b] | 22 nM | 827 nM
6 | CC(C)c1nc(-c2cnc(N)c(C(F)(F)F)c2)cn1[C@H]1[C@@H]2CC(N3CCOCC3)C[C@@H]21 (single isomer, unassigned) [Example 127a] | 52 nM | 939 nM
7 | Nc1ncc(-c2cn([C@H]3[C@@H]4CC(N5CCOCC5)C[C@@H]43)c(CC3CC3)n2)cc1C(F)(F)F (single isomer, unassigned) [Example 138b, 5-(2-(cyclopropylmethyl)-1-(3-morpholinobicyclo[3.1.0]hexan-6-yl)-1H-imidazol-4-yl)-3-(trifluoromethyl)pyridin-2-amine] | 34 nM | 1050 nM
8 | CC(C)c1nc(-c2cnc(N)c(OC(F)(F)F)c2)cn1[C@H]1[C@@H]2CC(N3CCN(CCF)CC3)C[C@@H]21 (single isomer, unassigned) [Example 156b, 5-(1-(3-(4-(2-fluoroethyl)piperazin-1-yl)bicyclo[3.1.0]hexan-6-yl)-2-isopropyl-1H-imidazol-4-yl)-3-(trifluoromethoxy)pyridin-2-amine] | 11 nM | 874 nM
9 | CN1CCN(C2C[C@@H]3[C@H](C2)[C@H]3n2cc(-c3cnc(N)c(C(F)(F)F)c3)nc2C2CC2)CC1 (single isomer, unassigned) [Example 129a, 5-(2-cyclopropyl-1-(3-(4-methylpiperazin-1-yl)bicyclo[3.1.0]hexan-6-yl)-1H-imidazol-4-yl)-3-(trifluoromethyl)pyridin-2-amine] | 12.8 nM | 503 nM
10 | CC(C)Cc1nc(-c2cnc(N)c(C(F)(F)F)c2)cn1[C@H]1[C@@H]2CN(CCF)C[C@@H]21 [Example 126, 5-(1-((1R,5S,6s)-3-(2-fluoroethyl)-3-azabicyclo[3.1.0]hexan-6-yl)-2-isobutyl-1H-imidazol-4-yl)-3-(trifluoromethyl)pyridin-2-amine] | 34 nM | 823 nM
11 | CC(C)c1nc(-c2cnc(N)c(C(F)(F)F)c2)cn1[C@H]1[C@@H]2CC(N3CCN(CCF)CC3)C[C@@H]21 (single isomer, unassigned) [Example 155b, 5-(1-(3-(4-(2-fluoroethyl)piperazin-1-yl)bicyclo[3.1.0]hexan-6-yl)-2-isopropyl-1H-imidazol-4-yl)-3-(trifluoromethyl)pyridin-2-amine] | 4.5 nM | 1160 nM
12 | Nc1ncc(-c2cn([C@H]3[C@@H]4CN(C5CCOCC5)C[C@@H]43)c(CC3CC3)n2)cc1OC(F)(F)F [Example 97, 5-(2-(cyclopropylmethyl)-1-((1R,5S,6s)-3-(tetrahydro-2H-pyran-4-yl)-3-azabicyclo[3.1.0]hexan-6-yl)-1H-imidazol-4-yl)-3-(trifluoromethoxy)pyridin-2-amine] | 57 nM | 1900 nM
13 | Nc1ncc(-c2cn([C@H]3[C@@H]4CN(C5CCOCC5)C[C@@H]43)c(C3CC3)n2)cc1C(F)(F)F [Example 74, 5-(2-cyclopropyl-1-((1R,5S,6s)-3-(tetrahydro-2H-pyran-4-yl)-3-azabicyclo[3.1.0]hexan-6-yl)-1H-imidazol-4-yl)-3-(trifluoromethyl)pyridin-2-amine] | 54 nM | 1350 nM
14 | CC(C)c1nc(-c2cnc(N)c(C(F)(F)F)c2)cn1C1CC2(C1)CN(C1COC1)C2 [Example 31, 5-(2-isopropyl-1-(2-(oxetan-3-yl)-2-azaspiro[3.3]heptan-6-yl)-1H-imidazol-4-yl)-3-(trifluoromethyl)pyridin-2-amine] | 82 nM | 2150 nM
15 | CN1CCN(C2C[C@@H]3[C@H](C2)[C@H]3n2cc(-c3cnc(N)c(OC(F)(F)F)c3)nc2C2CC2)CC1 (some centres unmarked) [Example 135, 5-(2-cyclopropyl-1-(3-(4-methylpiperazin-1-yl)bicyclo[3.1.0]hexan-6-yl)-1H-imidazol-4-yl)-3-(trifluoromethoxy)pyridin-2-amine] | 17 nM | 346 nM
16 | Nc1ncc(-c2cn([C@H]3[C@@H]4CN(C5COC5)C[C@@H]43)c(CC3CC3)n2)cc1C(F)(F)F [Example 2, 5-(2-(cyclopropylmethyl)-1-((1R,5S,6s)-3-(oxetan-3-yl)-3-azabicyclo[3.1.0]hexan-6-yl)-1H-imidazol-4-yl)-3-(trifluoromethyl)pyridin-2-amine] | 46 nM | 1730 nM
17 | Nc1ncc(-c2cn3c(n2)C(C2CC2)N(C2COC2)CC3)cc1C(F)(F)F (centres unmarked) [Example 4, 5-[8-cyclopropyl-7-(oxetan-3-yl)-5H,6H,7H,8H-imidazo[1,2-a]pyrazin-2-yl]-3-(trifluoromethyl)pyridin-2-amine] | 390 nM | 14800 nM
18 | CC(C)c1nc(-c2cnc(N)c(C(F)(F)F)c2)cn1C1CC2(CC(N3CCOCC3)C2)C1 (centres unmarked) [Example 38, 5-(2-isopropyl-1-(6-morpholinospiro[3.3]heptan-2-yl)-1H-imidazol-4-yl)-3-(trifluoromethyl)pyridin-2-amine] | 25 nM | 1140 nM
19 | CN1CCN(C2C[C@@H]3[C@H](C2)[C@H]3n2cc(-c3cnc(N)c(OC(F)(F)F)c3)nc2CC2CC2)CC1 (single isomer, unassigned) [Example 151b, 5-(2-(cyclopropylmethyl)-1-(3-(4-methylpiperazin-1-yl)bicyclo[3.1.0]hexan-6-yl)-1H-imidazol-4-yl)-3-(trifluoromethoxy)pyridin-2-amine] | 20 nM | 826 nM
20 | CC(C)c1nc(-c2cnc(N)c(OC(F)(F)F)c2)cn1C1CC2(CC(N3CCOCC3)C2)C1 (centres unmarked) [Example 39, 5-(2-isopropyl-1-(6-morpholinospiro[3.3]heptan-2-yl)-1H-imidazol-4-yl)-3-(trifluoromethoxy)pyridin-2-amine] | 30 nM | 771 nM
21 | CC(C)c1nc(-c2cnc(N)c(OC(F)(F)F)c2)cn1[C@H]1[C@@H]2CC(N3CCCOCC3)C[C@@H]21 (single isomer, unassigned) [Example 20b, 5-(1-(3-(1,4-oxazepan-4-yl)bicyclo[3.1.0]hexan-6-yl)-2-isopropyl-1H-imidazol-4-yl)-3-(trifluoromethoxy)pyridin-2-amine] | 44 nM | 1050 nM
22 | Nc1ncc(-c2cn([C@H]3[C@@H]4CC(N5CCCOCC5)C[C@@H]43)c(C3CC3)n2)cc1OC(F)(F)F (some centres unmarked) [Example 149, 5-(1-(3-(1,4-oxazepan-4-yl)bicyclo[3.1.0]hexan-6-yl)-2-cyclopropyl-1H-imidazol-4-yl)-3-(trifluoromethoxy)pyridin-2-amine] | 37 nM | 574 nM
